Assay results as given in patent US10717753B2, “Deuterium-modified brigatinib derivatives, pharmaceutical compositions comprising same, and use thereof” (Chia Tai Tianqing Pharmaceutical Group Co., Ltd., priority 2015, dated 2020).

Experiments:
[1] = Stability in monkey liver microsomes in vitro; type: in vitro ADME; conditions: for half-life at 0.01 μmol/L: monkey liver microsomes 0.5 mg/mL protein, NADPH, 37° C., 1 μmol/L test compound; for half-life period compared to the original drug Brigatinib: monkey liver microsomes, statement in words; for Prolonging rates: prolongation of t1/2 in monkey liver microsomes versus Brigatinib
Protocol: 300 μL of a final incubation system contains 30 μL of monkey liver microsomes (protein concentration: 0.5 mg/mL, American BD Company), 30 μL of NADPH+MgCl2, 3 μL of a substrate (a solution of 1 μmol/L test compound in acetonitrile) and 237 μL of PBS buffer solution. The above incubation system was made in duplicate, each of 0.3 mL.
For each sample, an evenly mixed solution of the substrate and enzyme with a total volume of 270 μL was first prepared, and after pre-incubation at 37° C. for 5 min, 30 μL of NADPH+MgCl2 was added and mixed. 40 μL of the reaction solution was taken respectively at 0, 15, 30, 60 and 90 min, and the reaction was stopped by 300 μL of ice-cold acetonitrile containing an internal standard. In addition, three blanks (KB) were set, each of 300 μL (KB1: no NADPH; KB2: no substrate; KB3: no enzyme).
40 μL of the incubation sample was pipetted out, added with 400 μL of ice-cold acetonitrile containing an internal standard, vortexed for 5 min and centrifuged (13000 rpm, 4° C.) for 10 min. 80 μL of the supernatant was pipetted out in a loading plate, and then 80 μL of 50% acetonitrile aqueous solution was added to the plate and mixed. 1 μL of the mixture was pipetted out for LC/MS/MS assay and the chromatogram was recorded.

[2] = test system: human lung cancer cell NCI-H3122; test: Inhibition of proliferation in vitro, SRB method; type: cell-based; conditions: NCI-H3122 cells expressing EML4-ALK fusion protein, 72 hours, mean±standard deviation
Protocol: 1.1 Cells: human lung cancer cell line NCl—H3122, expressing EML4-ALK fusion protein.
1.2 Main reagents: sulfonyl rhodamine B, RPMI-1640 liquid medium, dimethyl sulfoxide (DMSO), trichloromethane (chloroform).
1.3 Instruments: Varioskan Flash microplate reader.
1.4 Solution preparation: an appropriate amount of a series of test compounds was taken and dissolved using 5% chloroform+95% DMSO, to form a stock solution of 20 mM, which was stored at −20° C. in aliquots. The positive drug Crizotinib was taken and dissolved using 5% chloroform+95% DMSO, and the stock solution was diluted with fresh medium to a working concentration before use. 95 μl DMSO and 5 μl chloroform were taken, mixed together, and diluted with fresh medium to a working concentration before use.
The tumor cell line used in tests was cultured in RPM11640 medium containing 10% inactivated Hyclone serum or fetal bovine serum, 100 IU/mL penicillin and 100 IU/mL streptomycin, in a 5% CO2 incubator at 37° C. NCl—H3122 cells were inoculated into a 96-well plate at 5000/well. It was ensured that the cells were in logarithmic growth phase during the whole test.
Groups of series of test compounds, negative control and Crizotinib (positive control) were set up in this test. For each test compound group, 6 concentration gradients by 3-fold serial dilution were set, and three wells were for each concentration. For positive control group, 6 concentration gradients by 3-fold serial dilution were set, and three wells were for each concentration. Negative control was 5% chloroform+95% DMSO (the same concentration as that of test compound at 100 nM), and 6 wells were set.
After the cells were treated with the drugs for 72 hours, the culture medium was discarded. A pre-chilled 10% trichloroacetic acid (TCA) solution was added into each well to fix the cells and the plate was placed in a refrigerator at 4° C. to fix. Each well of the plate was washed with deionized water for 5 times to remove trichloroacetic acid solution. After being dried in air, each well was added with SRB solution (4 mg/ml) prepared with 1% acetic acid and then kept for 20 minutes at room temperature. After the liquid was discarded, each well was washed with 1% acetic acid for 5 times to remove uncombined SRB dye, and then dried in air. An appropriate volume of 10 mM Tris-base (trimethylolamine methane) solution at pH 10.5 was added into each well to dissolve the cells. The plate was shaken on a plate shaker for 10 minutes. The absorbance (OD) value was measured at a wavelength of 490 nm in a microplate reader.
According to the OD values measured by microplate reader, an inhibition rate was calculated as the following formula: Survival rate (%)=OD of drug well/OD of control well×100%,
If the survival rate was ≥100%, it was recorded as 100%.
Using Calcusyn software, IC50 was calculated, and mean and standard deviation thereof were calculated, and the data was expressed as: mean±standard deviation.

| half-life at 0.01 μmol/L [1] | IC50 [2] | Prolonging rates [1] | Compound | half-life period compared to the original drug Brigatinib [1] |
| --- | --- | --- | --- | --- |
| 2.83 h | 13.3 ± 1.6 nM |  | COc1cc(N2CCC(N3CCN(C)CC3)CC2)ccc1Nc1ncc(Cl)c(Nc2ccccc2P(C)(C)=O)n1 [Brigatinib, 5-chloro-N^4-[2-(dimethylphosphonyl)phenyl]-N^2-{2-methoxy-4-[4-(4-methylpiperazin-1-yl)piperidin-1-yl]phenyl}pyrimidine-2,4-diamine] |  |
| 3.82 h | 10 ± 1.05 nM | 35% | [2H]C([2H])([2H])Oc1cc(N2CCC(N3CCN(C)CC3)CC2)ccc1Nc1ncc(Cl)c(Nc2ccccc2P(C)(C)=O)n1 [Compound I-1, (2-((5-chloro-2-((2-[D3]methoxy-4-(4-(4-methylpiperazin-1-yl)piperidin-1-yl)phenyl)amino)pyrimidin-4-yl)amino)phenyl)dimethyl phosphorus oxide] | significantly prolong the half-life period |
| 3.93 h | 9.45 ± 1.79 nM | 39% | [2H]C([2H])([2H])N1CCN(C2CCN(c3ccc(Nc4ncc(Cl)c(Nc5ccccc5P(C)(C)=O)n4)c(OC)c3)CC2)CC1 [Compound I-2, (2-((5-chloro-2-((2-methoxy-4-(4-(4-[D3]methylpiperazin-1-yl)piperidin-1-yl)phenyl)amino)pyrimidin-4-yl)amino)phenyl)dimethyl phosphorus oxide] | significantly prolong the half-life period |
| 3.32 h | 12.7 ± 2.37 nM | 17% | [2H]C([2H])([2H])Oc1cc(N2CCC(N3CCN(C([2H])([2H])[2H])CC3)CC2)ccc1Nc1ncc(Cl)c(Nc2ccccc2P(C)(C)=O)n1 [Compound I-3, (2-((5-chloro-2-((2-[D3]methoxy-4-(4-(4-[D3]methylpiperazin-1-yl)piperidin-1-yl)phenyl)amino)pyrimidin-4-yl)amino)phenyl)dimethyl phosphorus oxide] |  |
| 2.93 h | 11.1 ± 2.07 nM | 4% | [2H]C1([2H])CN(C)CC([2H])([2H])N1C1CCN(c2ccc(Nc3ncc(Cl)c(Nc4ccccc4P(C)(C)=O)n3)c(OC)c2)CC1 [Compound I-4, (2-((5-chloro-2-((2-methoxy-4-(4-(4-methyl[2,2,6,6-D4]piperazin-1-yl)piperidine-1-yl)phenyl)amino)pyrimidin-4-yl)amino)phenyl)dimethyl phosphorus oxide] |  |
| 3.72 h | 9.99 ± 2.31 nM | 31% | [2H]C1([2H])N(C)C([2H])([2H])C([2H])([2H])N(C2CCN(c3ccc(Nc4ncc(Cl)c(Nc5ccccc5P(C)(C)=O)n4)c(OC)c3)CC2)C1([2H])[2H] [Compound I-6, (2-((5-chloro-2-((2-methoxy-4-(4-(4-methyl[D8]piperazin-1-yl)piperidin-1-yl)phenyl)amino)pyrimidin-4-yl)amino)phenyl)dimethyl phosphorus oxide] | significantly prolong the half-life period |
| 3.78 h | 9.89 ± 0.76 nM | 34% | [2H]C([2H])([2H])N1C([2H])([2H])CN(C2CCN(c3ccc(Nc4ncc(Cl)c(Nc5ccccc5P(C)(C)=O)n4)c(OC)c3)CC2)CC1([2H])[2H] [Compound I-7] | significantly prolong the half-life period |
| 3.57 h | 7.65 ± 1.07 nM | 26% | [2H]C1([2H])CN(C2CCN(c3ccc(Nc4ncc(Cl)c(Nc5ccccc5P(C)(C)=O)n4)c(OC)c3)CC2)CC([2H])([2H])N1C [Compound I-9, (2-((5-chloro-2-((2-methoxy-4-(4-(4-methyl[3,3,5,5-D4]piperazin-1-yl)piperidin-1-yl)phenyl)amino)pyrimidin-4-yl)amino)phenyl)dimethyl phosphorus oxide] |  |
|  | 11.1 ± 0.69 nM |  | C[C@@H](Oc1cc(-c2cnn(C3CCNCC3)c2)cnc1N)c1c(Cl)ccc(F)c1Cl [Crizotinib, reference compound] |  |
